{
  "source": "patent US20040198810A1",
  "about": "(H. Lundbeck A/S, priority 2001, published 2004)",
  "format_in_all_cases": "in vivo",
  "key": {"[1]": {"test": "fixed dose studies (MADRS rating scale and Clinical Global Impression)", "settings": "escitalopram in a dose of 10 mg"}, "[2]": {"test_system": "primary care patients with major depression disorder", "test": "8-week, double-blind, randomised, placebo-controlled, flexible-dose clinical study", "settings": "Week 1 (p=0.023) to Week 4 (p=0.002), observed cases", "from_the_text": "(§1) This has i.a. been found in the Chronic Mild Stress model (Willner P., Psychopharmachology 1997, 134, 319-329).\nA total of 471 patients were randomised into the study. The all-patient-treated set comprised 469 patients and the full-analysis set comprised 468 patients.\nThere was an approximately 3 to 1 ratio of women to men in each treatment group, and almost all patients were Caucasian. The mean age was 43 years (SD 11). At baseline, the mean MADRS total score was approximately 29 for the treatment group, which signifies moderate to severely ill patients."}, "[3]": {"test_system": "Chronic Mild Stress model", "test": "Chronic Mild Stress model", "settings": "animal models", "from_the_text": "as §1"}},
  "data": [
    {"smiles": "CN(C)CCC[C@@]1(c2ccc(F)cc2)OCc2cc(C#N)ccc21", "note": "[escitalopram, (S)-1-[3-(dimethylamino)propyl]-1-(4-fluorophenyl)-1,3-dihydro-5-isobenzofurancarbonitrile]", "values": [
      {"measurement": "effect as determined by the MADRS rating scale and Clinical Global Impression (severity as well as improvement)", "setting": "[1]", "result": "at least same effect as citalopram in a dose of 40 mg"},
      {"measurement": "therapeutic effect versus placebo, adjusted mean change in MADRS total score", "setting": "[2]", "result": "significantly superior therapeutic effect"},
      {"measurement": "speed of response", "setting": "[3]", "result": "faster response than citalopram-racemate"}
    ]}
  ]
}
